Legend:
GRPR = biological target: T1, GRPR (Homo sapiens, UniProt P30550); experiment: Fluorometric intracellular calcium release assay in PC-3 cells; assay type: cell-based; settings: 50 nM, n = 3
T1 construct: Known to overexpress GRPR, the PC-3 cell line, a human prostate cancer cell line; host or cells: PC-3 human prostate cancer cells
Experimental: Following previously published procedures, 5 × 10^4 PC-3 cells in 100 μL of growth media were seeded per well in a 96-well clear-bottom black plate 24 h prior to the assay. A loading buffer (100 μL/well) containing a calcium-sensitive dye (FLIPR Calcium 6 assay kit) was added to the 96-well plate. After incubation at 37 °C for 2 h, the plate was placed in a FlexStation 3 microplate reader (Molecular Devices, San Jose, CA, USA). TacsBOMB2 derivatives (50 nM), [D-Phe^6,Leu-NHEt^13,des-Met^14]Bombesin(6-14) (50 nM, antagonist control), bombesin (50 nM, agonist control), adenosine triphosphate (ATP, 50 nM, positive control), or DPBS (blank control) was added, and the fluorescent signals were acquired for 2 min (λEx = 485 nm; λEm = 525 nm; n = 3). The relative fluorescent units (RFUs = max − min) were measured to determine the agonistic/antagonistic properties.

PC-3 tumor xenografts = settings: mouse, in vivo, 1 h; cited from earlier work

T1 sequence (P30550 whole entry): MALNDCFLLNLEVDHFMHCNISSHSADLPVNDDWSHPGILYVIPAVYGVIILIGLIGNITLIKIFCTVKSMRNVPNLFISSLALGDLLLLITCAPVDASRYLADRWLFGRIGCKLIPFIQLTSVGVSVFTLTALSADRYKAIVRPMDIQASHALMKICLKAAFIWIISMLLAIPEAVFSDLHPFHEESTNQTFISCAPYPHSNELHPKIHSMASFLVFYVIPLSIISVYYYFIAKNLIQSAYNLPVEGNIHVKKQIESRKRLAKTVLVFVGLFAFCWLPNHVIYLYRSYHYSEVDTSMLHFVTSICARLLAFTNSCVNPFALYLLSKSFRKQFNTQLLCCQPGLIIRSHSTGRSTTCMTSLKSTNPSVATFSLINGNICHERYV

In the case of `Nc1ncnc2c1ncn2[C@@H]1O[C@H](COP(=O)(O)OP(=O)(O)OP(=O)(O)O)[C@@H](O)[C@H]1O` [ATP, adenosine triphosphate], the “Ca2+ efflux” value (GRPR) is reported as 222 ± 21.7 RFUs.

In the case of “[^68Ga]Ga-DOTA-Pip-D-Phe^6-Gln^7-Trp^8-Ala^9-Val^10-Gly^11-His^12-Leu^13ψThz^14-NH2 [[^68Ga]Ga-TacsBOMB2]”, the Adrenal glands uptake (PC-3 tumor xenografts) is listed as 0.57 ± 0.40 %ID/g, the Blood uptake (PC-3 tumor xenografts) is listed as 0.76 ± 0.21 %ID/g and the Bone uptake (PC-3 tumor xenografts) is listed as 0.19 ± 0.06 %ID/g. For the same molecule, the Brain uptake (PC-3 tumor xenografts) was 0.05 ± 0.03 %ID/g, the Fat uptake (PC-3 tumor xenografts) was 0.09 ± 0.03 %ID/g and the Heart uptake (PC-3 tumor xenografts) was 0.27 ± 0.08 %ID/g. The Kidneys uptake (PC-3 tumor xenografts) was 2.51 ± 0.59 %ID/g, the Large intestine uptake (PC-3 tumor xenografts) was 0.37 ± 0.16 %ID/g and the Liver uptake (PC-3 tumor xenografts) was 2.61 ± 0.70 %ID/g. The Lungs uptake (PC-3 tumor xenografts) was 0.75 ± 0.52 %ID/g, the Muscle uptake (PC-3 tumor xenografts) was 0.15 ± 0.05 %ID/g and the PC-3 tumor uptake (PC-3 tumor xenografts) was 10.2 ± 2.27 %ID/g. For the same molecule, the Pancreas uptake (PC-3 tumor xenografts) was 2.81 ± 0.78 %ID/g, the Small intestine uptake (PC-3 tumor xenografts) was 1.04 ± 0.30 %ID/g and the Spleen uptake (PC-3 tumor xenografts) was 0.47 ± 0.17 %ID/g. The Stomach uptake (PC-3 tumor xenografts) was 0.32 ± 0.08 %ID/g and the Testes uptake (PC-3 tumor xenografts) was 0.19 ± 0.05 %ID/g.

With bombesin the “Ca2+ efflux” value (GRPR) was 499 ± 73.4 RFUs.

With “[D-Phe^6,Leu-NHEt^13,des-Met^14]Bombesin(6-14)” the “Ca2+ efflux” value (GRPR) was 38.2 ± 7.20 RFUs.

Reference: PMC11124507, “Synthesis and Evaluation of Novel ^68Ga-Labeled [D-Phe^6,Leu^13ψThz^14]bombesin(6-14) Analogs for Cancer Imaging with Positron Emission Tomography” (Pharmaceuticals, 2024)
